Data from US20240426776A1, “RAPID DIFFERENTIATION OF ANTIBIOTIC-SUSCEPTIBLE AND -RESISTANT BACTERIA THROUGH MEDIATED EXTRACELLULAR ELECTRON TRANSFER” (priority 2021, published 2024).
Where “and” joins values, the source holds several entries; their conditions need not be identical. Identical values can stand only once. Like-named read-outs stand apart in the source and are kept apart here.

How the values were obtained:
[1] = test system: Klebsiella pneumoniae (strains 34 and 115); conditions: for ASIn (antibiotic susceptibility index), single replicates: imipenem 20× breakpoint (80 μg/mL), ASI20, 15 μM PMS, 0.1 OD600
Method: For initial quality control, cyclic voltammetry scan was recorded from 0.5 V to −0.5 V then back to 0.5 V using the potentiostat 13 configuration. The potentiostat controls the working electrode voltage relative to the reference electrode.
For antibiotic susceptibility experiments, the working electrode 6 was controlled at 0 VAg/AgCl. The current can also be measured and analyzed for determining resistance/susceptibility of pathogens to drugs (e.g., antibiotics) using other devices such as a multiplexer or any interface instrument that can receive one or more data inputs and forward it to an output for analysis and feedback. In particular, such one or more data inputs can be directed to a processor, signal processor, computer-based system, etc. and thereafter/correspondingly any such interface instrument can receive instructions from, such processing instruments as better detailed in the description for the embodiment of FIG. 14 below. It is also to be noted that any induced currents undergo a decision methodology that can be interpreted by such a configured processor, signal processor, computer-based system, etc. for aiding in the determination of antibiotic susceptibility/resistance, such as, the methodology better detailed in the description of FIG. 6 below.
Turning back to the discussion for FIG. 1B but also FIG. 1A, an initial baseline was established in the MH media, PMS, and antibiotic mixture for 50-60 min before inoculating the electrochemical cell with a bacteria cell 2. On placing the bacteria cell 2 (again see FIG. 1A) into the electrochemical cell 10, the bacteria cell 2 undergoes metabolic reactions and generates electrons 4 through metabolic processes, as was generally described above. […]
Tests disclosed in the example embodiments herein for the purpose of illustration were conducted with an inoculum of 0.1 OD600. A cell density equating to 0.1 OD600 was determined for each species by serial dilution. […] The colony forming units per mL (CFU/mL) were quantified using a drop plate method as known to those skilled in the art. […]

[2] = test system: Escherichia coli (strains 61 and 77); conditions: cited from earlier work

## C[C@@H](O)[C@H]1C(=O)N2C(C(=O)O)=C(SCCN=CN)C[C@H]12 [Imipenem, imipenem]
[1]; strain 34 (susceptible)
  ASIn (antibiotic susceptibility index), single replicates: 0.56 and 0.88 and 0.67 and 0.58
[1]; strain 115 (resistant), imipenem 20× (80 μg/mL)
  average ASI20 (±SE): 0.28±0.08
[1]; strain 115 (resistant)
  ASIn (antibiotic susceptibility index), single replicates: 0.32 and 0.47 and 0.18 and 0.17

## NC[C@H]1O[C@H](O[C@H]2[C@H](O)[C@@H](O[C@H]3O[C@H](CO)[C@@H](O)[C@H](N)[C@H]3O)[C@H](N)C[C@@H]2N)[C@H](N)C[C@@H]1O [Tobramycin, tobramycin]
[2]
  CLSI guidelines (resistance breakpoint) for the species: 16 µg/mL
